Reference: ChEMBL document CHEMBL4765475, “Tuning the Biological Activity of RGD Peptides with Halotryptophans†” (J Med Chem, 2021)
The source made the active and inactive calls. The rule behind the calls is not given here.

Columns and labels:
[1] = test system: KB; experiment: Cytotoxicity in human KB cells; assay type: functional, cell-based; conditions: for IC50: Homo sapiens, KB
[2] = target: Integrin alpha-V/beta-6 (Homo sapiens, UniProt P06756+P18564); experiment: Binding affinity to human integrin alphaVbeta6 incubated for 1 hr by ELISA based solid phase integrin binding assay; assay type: protein-complex assay
[3] = Selectivity index, ratio of IC50 for binding affinity to human integrin alpha5beta1 to IC50 for binding affinity to human integrin alphaVbeta3
[4] = target: Integrin alpha-V/beta-8 (Homo sapiens, UniProt P06756+P26012); experiment: Binding affinity to human integrin alphaVbeta8 incubated for 1 hr by ELISA based solid phase integrin binding assay; assay type: protein-complex assay
[5] = target: Integrin alpha-IIb/beta-3 (Homo sapiens, UniProt P05106+P08514); experiment: Binding affinity to human integrin alpha2bbeta3 incubated for 1 hr by ELISA based solid phase integrin binding assay; assay type: protein complex
[6] = target: T1, Integrin alpha-V/beta-3 (Homo sapiens, UniProt P05106+P06756); experiment: Binding affinity to integrin alphaVbeta3 expressed in human M21 cells at 250 uM incubated for 30 mins by confocal microscopy; assay type: cell-based
[7] = target: Integrin alpha-5/beta-1 (Homo sapiens, UniProt P05556+P08648); experiment: Binding affinity to human integrin alpha5beta1 incubated for 1 hr by ELISA based solid phase integrin binding assay; assay type: protein-complex assay
[8] = target: T1, Integrin alpha-V/beta-3; experiment: Binding affinity to human integrin alphaVbeta3 incubated for 1 hr by ELISA based solid phase integrin binding assay; assay type: protein-complex assay

Sequence of Integrin alpha-V/beta-6 (P06756 31-889 limits assumed): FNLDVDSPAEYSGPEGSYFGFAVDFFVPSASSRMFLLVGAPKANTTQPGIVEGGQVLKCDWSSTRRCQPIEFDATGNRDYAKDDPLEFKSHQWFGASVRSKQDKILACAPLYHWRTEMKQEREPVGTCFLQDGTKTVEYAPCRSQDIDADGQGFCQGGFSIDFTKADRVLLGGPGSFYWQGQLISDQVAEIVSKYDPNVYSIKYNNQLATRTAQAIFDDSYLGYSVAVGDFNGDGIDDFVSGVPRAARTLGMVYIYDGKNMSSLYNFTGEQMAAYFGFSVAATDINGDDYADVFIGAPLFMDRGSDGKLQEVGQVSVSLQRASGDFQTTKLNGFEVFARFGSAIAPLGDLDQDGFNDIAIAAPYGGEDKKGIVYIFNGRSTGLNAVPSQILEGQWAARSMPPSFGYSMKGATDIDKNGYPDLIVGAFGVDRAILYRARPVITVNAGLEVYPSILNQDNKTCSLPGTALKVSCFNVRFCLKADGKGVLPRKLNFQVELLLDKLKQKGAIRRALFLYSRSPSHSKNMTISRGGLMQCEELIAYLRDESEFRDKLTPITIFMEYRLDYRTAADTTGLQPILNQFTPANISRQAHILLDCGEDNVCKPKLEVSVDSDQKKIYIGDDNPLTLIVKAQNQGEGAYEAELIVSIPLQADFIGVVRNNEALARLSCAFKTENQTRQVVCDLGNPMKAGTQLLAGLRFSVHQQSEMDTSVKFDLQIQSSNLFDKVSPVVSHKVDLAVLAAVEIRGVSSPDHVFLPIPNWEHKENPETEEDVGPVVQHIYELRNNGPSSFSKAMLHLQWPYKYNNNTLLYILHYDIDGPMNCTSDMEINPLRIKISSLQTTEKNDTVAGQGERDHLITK
Sequence of Integrin alpha-V/beta-6 (P06756 891-1048 limits assumed): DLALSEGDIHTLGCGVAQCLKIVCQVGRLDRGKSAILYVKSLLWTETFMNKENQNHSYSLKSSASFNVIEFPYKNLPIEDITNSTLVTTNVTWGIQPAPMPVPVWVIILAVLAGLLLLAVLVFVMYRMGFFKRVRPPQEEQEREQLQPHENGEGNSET
Sequence of Integrin alpha-V/beta-6 (P18564 22-788 limits assumed): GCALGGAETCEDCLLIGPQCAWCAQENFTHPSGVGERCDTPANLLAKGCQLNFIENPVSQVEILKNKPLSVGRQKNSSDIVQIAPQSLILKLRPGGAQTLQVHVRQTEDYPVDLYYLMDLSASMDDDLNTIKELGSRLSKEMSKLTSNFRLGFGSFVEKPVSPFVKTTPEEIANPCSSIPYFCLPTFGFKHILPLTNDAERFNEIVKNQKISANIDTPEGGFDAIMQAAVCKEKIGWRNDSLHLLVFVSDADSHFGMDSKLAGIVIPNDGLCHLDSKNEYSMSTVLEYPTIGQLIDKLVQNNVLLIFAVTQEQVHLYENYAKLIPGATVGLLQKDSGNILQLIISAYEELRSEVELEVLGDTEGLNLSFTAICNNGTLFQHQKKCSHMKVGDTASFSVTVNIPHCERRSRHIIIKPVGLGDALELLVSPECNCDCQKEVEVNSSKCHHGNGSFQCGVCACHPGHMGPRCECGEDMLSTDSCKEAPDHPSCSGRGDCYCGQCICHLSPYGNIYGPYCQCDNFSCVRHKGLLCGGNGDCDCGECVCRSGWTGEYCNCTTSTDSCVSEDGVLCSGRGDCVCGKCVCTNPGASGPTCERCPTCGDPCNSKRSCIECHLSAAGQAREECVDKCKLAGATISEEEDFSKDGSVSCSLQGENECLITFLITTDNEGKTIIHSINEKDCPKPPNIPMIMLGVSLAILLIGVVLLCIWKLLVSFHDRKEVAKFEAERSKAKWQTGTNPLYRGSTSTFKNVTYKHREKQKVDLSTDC
Sequence of Integrin alpha-V/beta-8 (P06756 31-889 limits assumed): as the sequence (P06756 31-889 limits assumed) above
Sequence of Integrin alpha-V/beta-8 (P06756 891-1048 limits assumed): as the sequence (P06756 891-1048 limits assumed) above
Sequence of Integrin alpha-V/beta-8 (P26012 43-769 limits assumed): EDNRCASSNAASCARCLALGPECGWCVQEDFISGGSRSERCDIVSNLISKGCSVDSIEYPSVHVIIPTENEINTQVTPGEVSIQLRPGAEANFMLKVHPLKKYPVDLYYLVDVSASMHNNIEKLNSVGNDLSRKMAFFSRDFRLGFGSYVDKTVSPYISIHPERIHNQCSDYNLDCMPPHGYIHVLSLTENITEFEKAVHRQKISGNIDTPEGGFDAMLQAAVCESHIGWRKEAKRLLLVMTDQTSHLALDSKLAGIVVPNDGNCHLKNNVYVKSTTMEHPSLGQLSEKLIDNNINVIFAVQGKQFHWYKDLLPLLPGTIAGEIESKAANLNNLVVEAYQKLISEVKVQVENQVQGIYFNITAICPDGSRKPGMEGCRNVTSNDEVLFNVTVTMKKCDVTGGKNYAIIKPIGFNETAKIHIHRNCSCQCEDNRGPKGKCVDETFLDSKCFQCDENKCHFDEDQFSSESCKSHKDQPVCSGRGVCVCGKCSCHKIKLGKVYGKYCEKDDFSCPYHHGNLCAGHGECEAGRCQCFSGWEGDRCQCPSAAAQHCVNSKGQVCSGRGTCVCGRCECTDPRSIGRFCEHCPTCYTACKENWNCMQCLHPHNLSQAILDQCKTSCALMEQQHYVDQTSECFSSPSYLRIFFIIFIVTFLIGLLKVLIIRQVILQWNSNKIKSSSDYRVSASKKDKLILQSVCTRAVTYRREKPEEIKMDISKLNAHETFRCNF
Sequence of Integrin alpha-5/beta-1 (P05556 21-798 limits assumed): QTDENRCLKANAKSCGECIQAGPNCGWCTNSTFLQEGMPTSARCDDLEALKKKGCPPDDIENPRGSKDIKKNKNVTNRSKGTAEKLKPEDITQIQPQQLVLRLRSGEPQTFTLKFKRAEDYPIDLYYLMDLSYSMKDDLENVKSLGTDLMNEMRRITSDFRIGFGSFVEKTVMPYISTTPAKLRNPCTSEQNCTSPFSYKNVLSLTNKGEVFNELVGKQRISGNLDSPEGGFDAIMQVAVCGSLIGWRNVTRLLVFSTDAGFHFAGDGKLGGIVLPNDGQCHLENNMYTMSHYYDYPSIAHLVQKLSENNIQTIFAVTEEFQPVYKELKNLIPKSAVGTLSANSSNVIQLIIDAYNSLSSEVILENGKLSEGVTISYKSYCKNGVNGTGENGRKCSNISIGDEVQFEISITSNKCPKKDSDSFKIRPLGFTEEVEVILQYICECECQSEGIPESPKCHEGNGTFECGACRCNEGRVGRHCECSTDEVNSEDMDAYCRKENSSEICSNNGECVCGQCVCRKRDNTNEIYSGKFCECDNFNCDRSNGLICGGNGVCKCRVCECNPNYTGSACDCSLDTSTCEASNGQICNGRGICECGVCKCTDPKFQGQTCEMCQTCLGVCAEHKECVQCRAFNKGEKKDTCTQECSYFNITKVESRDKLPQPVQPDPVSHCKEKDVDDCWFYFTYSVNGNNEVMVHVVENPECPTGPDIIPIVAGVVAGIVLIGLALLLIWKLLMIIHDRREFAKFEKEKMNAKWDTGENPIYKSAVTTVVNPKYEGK
Sequence of Integrin alpha-5/beta-1 (P08648 42-894 limits assumed): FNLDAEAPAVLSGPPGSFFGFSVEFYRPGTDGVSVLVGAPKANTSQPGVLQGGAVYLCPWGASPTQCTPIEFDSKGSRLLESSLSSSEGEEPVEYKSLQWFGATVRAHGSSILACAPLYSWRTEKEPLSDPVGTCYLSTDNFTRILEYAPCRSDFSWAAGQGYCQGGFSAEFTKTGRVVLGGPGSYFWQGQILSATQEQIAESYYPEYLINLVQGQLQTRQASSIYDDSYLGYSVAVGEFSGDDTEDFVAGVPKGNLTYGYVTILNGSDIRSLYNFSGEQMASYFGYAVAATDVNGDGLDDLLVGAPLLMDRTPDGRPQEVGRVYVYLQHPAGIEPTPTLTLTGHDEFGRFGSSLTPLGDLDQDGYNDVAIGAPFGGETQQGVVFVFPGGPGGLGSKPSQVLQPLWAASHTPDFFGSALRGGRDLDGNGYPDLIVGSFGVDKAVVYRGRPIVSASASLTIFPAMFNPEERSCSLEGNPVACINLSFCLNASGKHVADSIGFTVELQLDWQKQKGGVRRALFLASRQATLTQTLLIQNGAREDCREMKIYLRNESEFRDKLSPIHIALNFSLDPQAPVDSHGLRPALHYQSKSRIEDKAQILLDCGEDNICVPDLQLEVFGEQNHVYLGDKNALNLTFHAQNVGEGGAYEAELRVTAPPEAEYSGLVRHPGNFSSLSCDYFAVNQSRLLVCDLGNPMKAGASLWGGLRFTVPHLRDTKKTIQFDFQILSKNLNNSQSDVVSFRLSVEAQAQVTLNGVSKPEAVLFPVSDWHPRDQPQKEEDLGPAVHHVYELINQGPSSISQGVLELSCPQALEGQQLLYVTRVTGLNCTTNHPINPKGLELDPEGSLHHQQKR
Sequence of Integrin alpha-5/beta-1 (P08648 895-1049 limits assumed): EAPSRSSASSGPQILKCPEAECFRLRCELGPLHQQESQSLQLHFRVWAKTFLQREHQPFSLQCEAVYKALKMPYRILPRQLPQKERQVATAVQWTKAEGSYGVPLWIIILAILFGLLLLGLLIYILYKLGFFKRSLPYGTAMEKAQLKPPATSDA

SMILES | Ratio IC50 [3] | IC50 [7] | IC50 [8] | other results
O=[N+]([O-])/C=C1\NCCN1Cc1cccnc1 |  |  |  | LC90 [1]: 8 ppm
CC(C)[C@@H]1NC(=O)[C@@H](Cc2c[nH]c3c(-c4ccc5ccc6cccc7ccc4c5c67)cccc23)NC(=O)[C@H](CC(=O)O)NC(=O)CNC(=O)[C@H](CCCNC(=N)N)NC1=O | 407 |  |  | IC50 [2]: 299 nM; IC50 [4]: 1010 nM; IC50 [5]: > 10000 nM; Activity [6]: Active
O=[N+]([O-])/C=C1\NCCN1Cc1ccc(Cl)nc1 |  |  |  | LC90 [1]: 0.32 ppm
CC(C)[C@@H]1NC(=O)[C@@H](Cc2c[nH]c3c(-c4c5ccccc5cc5ccccc45)cccc23)NC(=O)[C@H](CC(=O)O)NC(=O)CNC(=O)[C@H](CCCNC(=N)N)NC1=O | 798 | 471 nM | 0.59 nM | IC50 [2]: 32 nM; IC50 [4]: 193 nM; IC50 [5]: > 10000 nM
O=[N+]([O-])/C=C1\NCCN1Cc1ccc(Br)nc1 |  |  |  | LC90 [1]: 1.6 ppm
O=[N+]([O-])/C=C1\NCCN1Cc1ccc(F)nc1 |  |  |  | LC90 [1]: 0.32 ppm
COc1ccc(C[C@H]2NC(=O)/C=C/C[C@@H]([C@H](C)[C@@H]3O[C@H]3c3ccccc3)OC(=O)[C@H](CC(C)C)OC(=O)C(C)(C)CNC2=O)cc1 |  |  |  | IC50 [1]: 0.073 nM
COc1ccc(C[C@H]2NC(=O)/C=C/C[C@@H]([C@H](C)[C@@H]3O[C@H]3c3ccccc3)OC(=O)[C@H](CC(C)C)OC(=O)C(C)(C)CNC2=O)cc1Cl |  |  |  | IC50 [1]: 0.009 nM
CC(C)[C@@H]1NC(=O)[C@@H](Cc2c[nH]c3c(-c4ccc(C(=O)O)cc4)cccc23)NC(=O)[C@H](CC(=O)O)NC(=O)CNC(=O)[C@H](CCCNC(=N)N)NC1=O | 42 | 22 nM | 0.52 nM | IC50 [2]: 54 nM; IC50 [4]: 39.2 nM; IC50 [5]: > 10000 nM

Second part, led by results:

Ratio IC50 [3] | IC50 [7] | IC50 [8] | SMILES | other results
89 | 66 nM | 0.74 nM | COc1ccc(-c2cccc3c(C[C@H]4NC(=O)[C@H](CC(=O)O)NC(=O)CNC(=O)[C@H](CCCNC(=N)N)NC(=O)[C@H](C(C)C)NC4=O)c[nH]c23)cc1 | IC50 [2]: 50 nM; IC50 [4]: 76.5 nM; IC50 [5]: > 10000 nM
1170 | 610 nM | 0.52 nM | CC(C)[C@@H]1NC(=O)[C@@H](Cc2c[nH]c3c(-c4cccc(N)c4)cccc23)NC(=O)[C@H](CC(=O)O)NC(=O)CNC(=O)[C@H](CCCNC(=N)N)NC1=O | IC50 [2]: 36 nM; IC50 [4]: 220 nM; IC50 [5]: > 10000 nM
 | > 10000 nM | 311 nM | CC(C)[C@@H]1C(=O)N[C@@H](CCCNC(=N)N)C(=O)NCC(=O)N[C@@H](CC(=O)O)C(=O)N[C@@H](Cc2c[nH]c3c(Br)cccc23)C(=O)N1C | 
120 | 74.3 nM | 0.62 nM | CC(C)[C@@H]1NC(=O)[C@@H](Cc2c[nH]c3c(Br)cccc23)NC(=O)[C@H](CC(=O)O)NC(=O)CNC(=O)[C@H](CCCNC(=N)N)NC1=O | 
82 | 43.3 nM | 0.53 nM | CC(C)[C@@H]1NC(=O)[C@@H](Cc2c[nH]c3cc(Br)ccc23)NC(=O)[C@H](CC(=O)O)NC(=O)CNC(=O)[C@H](CCCNC(=N)N)NC1=O | 
114 | 49.2 nM | 0.43 nM | CC(C)[C@@H]1NC(=O)[C@@H](Cc2c[nH]c3c(I)cccc23)NC(=O)[C@H](CC(=O)O)NC(=O)CNC(=O)[C@H](CCCNC(=N)N)NC1=O | 
891 | 472 nM | 0.53 nM | CC(C)[C@H]1NC(=O)[C@H](Cc2c[nH]c3c(Br)cccc23)NC(=O)[C@H](CC(=O)O)NC(=O)CNC(=O)[C@H](CCCNC(=N)N)NC1=O | 
163 | 39.1 nM | 0.24 nM | CC(C)[C@@H]1NC(=O)[C@@H](Cc2c[nH]c3cc(Cl)ccc23)NC(=O)[C@H](CC(=O)O)NC(=O)CNC(=O)[C@H](CCCNC(=N)N)NC1=O | 
167 | 58.3 nM | 0.35 nM | CC(C)[C@@H]1NC(=O)[C@@H](Cc2c[nH]c3c(F)cccc23)NC(=O)[C@H](CC(=O)O)NC(=O)CNC(=O)[C@H](CCCNC(=N)N)NC1=O | 
269 | 91.3 nM | 0.34 nM | CC(C)[C@@H]1NC(=O)[C@@H](Cc2c[nH]c3c(Cl)cccc23)NC(=O)[C@H](CC(=O)O)NC(=O)CNC(=O)[C@H](CCCNC(=N)N)NC1=O | 
8.6 | 9.9 nM | 1.15 nM | CC(C)[C@@H]1NC(=O)[C@@H](Cc2c[nH]c3ccccc23)NC(=O)[C@H](CC(=O)O)NC(=O)CNC(=O)[C@H](CCCNC(=N)N)NC1=O | 
7.4 | 10.2 nM | 1.37 nM | CC(C)[C@H]1C(=O)N[C@@H](CCCNC(=N)N)C(=O)NCC(=O)N[C@@H](CC(=O)O)C(=O)N[C@H](Cc2c[nH]c3c(Br)cccc23)C(=O)N1C | 
